Columns and labels:
Type in all cases: binding
AZG2 [1] = target: T1, AZG2 (Arabidopsis thaliana, UniProt Q84MA8); experiment: ITC
T1 sequence (Q84MA8 1-530): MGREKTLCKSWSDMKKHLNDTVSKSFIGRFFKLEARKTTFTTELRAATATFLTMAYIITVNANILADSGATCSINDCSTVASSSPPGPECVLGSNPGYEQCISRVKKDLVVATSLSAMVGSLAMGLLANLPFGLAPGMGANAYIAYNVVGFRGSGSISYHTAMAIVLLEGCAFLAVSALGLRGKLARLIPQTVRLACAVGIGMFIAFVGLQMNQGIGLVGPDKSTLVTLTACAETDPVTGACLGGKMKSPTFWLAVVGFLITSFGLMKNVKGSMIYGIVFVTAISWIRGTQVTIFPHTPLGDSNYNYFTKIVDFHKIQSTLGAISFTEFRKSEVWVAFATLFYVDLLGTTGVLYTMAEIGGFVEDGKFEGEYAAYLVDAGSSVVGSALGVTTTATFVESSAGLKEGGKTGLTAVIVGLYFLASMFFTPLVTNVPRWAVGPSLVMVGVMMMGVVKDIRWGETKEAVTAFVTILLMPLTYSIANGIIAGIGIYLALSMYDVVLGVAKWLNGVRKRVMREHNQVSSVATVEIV

AZG1 = AZG1 (Arabidopsis thaliana, UniProt Q9SRK7); experiment: ITC at pH […]
AZG2 [2] = target: T1, AZG2; experiment: ITC at pH […]

| Kd (AZG2 [1]) | Kd (AZG1) | Kd (AZG2 [2]) | SMILES |
| --- | --- | --- | --- |
| 2090 ± 470 nM |  |  | c1ccc(CNc2ncnc3nc[nH]c23)cc1 [BA, benzyladenine] |
|  | 620 ± 110 nM | 770 ± 90 nM | Nc1ncnc2nc[nH]c12 [adenine] |
| 710 ± 80 nM |  |  | CC(C)=CCNc1ncnc2nc[nH]c12 [iP, N^6-(Δ^2-isopentenyl)adenine] |
| 710 ± 90 nM |  |  | c1coc(CNc2ncnc3[nH]cnc23)c1 [kinetin] |

Source: publication PMC11992111 (Nature Communications, 2025)
